Test results from ChEMBL document CHEMBL3044756, “Distribution of trunk-injected ¹⁴C-imidacloprid in ash trees and effects on emerald ash borer (Coleoptera: Buprestidae) adults” (2009).

Legend:
Type in all cases: functional
Agrilus planipennis [1] = assay: Insecticidal activity against Agrilus planipennis isolated from 21 days after 25 uCi compound treated by trunk injected ash tree leaves assessed as mortality at 0.55 to 60 ug/g
Agrilus planipennis [2] = assay: Insecticidal activity against Agrilus planipennis isolated from 21 days after 25 uCi compound treated by trunk injected ash tree leaves assessed as mortality at 64 ug/g
Agrilus planipennis [3] = assay: Insecticidal activity against Agrilus planipennis infected ash trees assessed as mortality at 25 uCi treated by trunk injection measured after 21 days
Agrilus planipennis [4] = assay: Insecticidal activity against Agrilus planipennis isolated from 45 days after 25 uCi compound treated by trunk injected ash tree leaves assessed as mortality measured after 3 days of feeding
Agrilus planipennis [5] = assay: Insecticidal activity against Agrilus planipennis isolated from 21 days after 25 uCi compound treated by trunk injected ash tree leaves assessed as mortality measured after 3 days of feeding
Agrilus planipennis [6] = assay: Insecticidal activity against Agrilus planipennis infected ash trees assessed as mortality at 25 uCi treated by trunk injection measured after 45 days

Structure (SMILES): O=[N+]([O-])/N=C1\NCCN1Cc1ccc(Cl)nc1 [IMIDACLOPRID]
- Activity (Agrilus planipennis [1]): 11%
- Activity (Agrilus planipennis [2]): 70%
- Activity (Agrilus planipennis [3]): 11%
- Activity (Agrilus planipennis [4]): 70%
- Activity (Agrilus planipennis [5]): 44%
- Activity (Agrilus planipennis [6]): 17%
